The text below walks through data of ChEMBL document CHEMBL4483862, “Open-source discovery of chemical leads for next-generation chemoprotective antimalarials” (2018).

Molecules are shown by their SMILES.

The test system of this experiment is Plasmodium berghei. Nature of the experiment: Luciferase/luciferin-expressing antifolate-resistant parasites were used to infect a culture of HepG2 cells that were pre-incubated with compounds. Infected hepatocytes emit light due to the luciferase reaction. Assay results are presented as the percent inhibition of light emission compared to control. […]. In kind it is functional. Particulars: sporozoite; for IC90: read-out: LUCIFERASE INFECTION ASSAY - IC90.

[1] abbreviates: read-out: LUCIFERASE INFECTION ASSAY - IC50.

The term IC50 denotes the midpoint of a concentration-inhibition curve. What is called IC90 is the concentration needed for an effect of 90%. Regarding `CC(C)(C)c1ccc(-c2n[nH]c(NC(=O)c3ccccc3Cl)c2Br)cc1`, the IC90 is more than 7.63 µM. In addition, the concentration for half-maximal inhibition (IC50) (PBLUC_HILL_SLOPE 11.9, PBLUC_R_SQUARED 0.175, read-out: LUCIFERASE INFECTION ASSAY - IC50) was 7.07 µM.
For the compound `OCc1ccc(-c2cnc3ccc(-c4ccccc4)nn23)cc1`, the IC90 stood at 3.93 µM. In addition, the 50% inhibitory concentration (IC50) (HEPG2TOX_HILL_SLOPE 2.14, HEPG2TOX_R_SQUARED 0.888, PBLUC_HILL_SLOPE 1.3, PBLUC_R_SQUARED 0.716, read-out: LUCIFERASE INFECTION ASSAY - IC50) was 0.73 µM.
`CN(C)C(=O)COC(=O)c1cccc(CN2C(=O)c3ccccc3C2=O)c1`: the IC90 was more than 10 µM. The IC50 under setting [1] is more than 10 µM.
As to `Cc1ccc(NC(=O)Cn2nnc(-c3ccccc3)n2)cc1S(=O)(=O)N1CCCCCC1`, the 90% effect concentration (IC90) was more than 10 µM. Moreover, under “HEPG2TOX_HILL_SLOPE 11.8, HEPG2TOX_R_SQUARED 0.86, PBLUC_HILL_SLOPE 22, PBLUC_R_SQUARED 0.334, read-out: LUCIFERASE INFECTION ASSAY - IC50”, the IC50 is 9.07 µM.
Consider `COc1ccccc1-n1nnnc1SC(C)C(=O)Nc1ccc2[nH]c(=O)[nH]c2c1` (stereo not drawn), for which the IC90 was more than 10 µM. Besides, the IC50 under setting [1] is more than 10 µM.
Regarding `Cc1cc(CSc2ccccc2C(=O)NNC(=O)c2ccccc2O)on1`, the IC90 was more than 10 µM. In addition, under “PBLUC_HILL_SLOPE 2.63, PBLUC_R_SQUARED 0.786, read-out: LUCIFERASE INFECTION ASSAY - IC50”, the IC50 amounted to 7.42 µM.
`CCCNC(=O)c1c(NC(=O)c2cccc(C#N)c2)nc2ccc(C)cn12`: the IC90 was more than 9.13 µM. Also, the IC50 (HEPG2TOX_HILL_SLOPE 3.59, HEPG2TOX_R_SQUARED 0.259, PBLUC_HILL_SLOPE 11, PBLUC_R_SQUARED 0.773, read-out: LUCIFERASE INFECTION ASSAY - IC50) turned out to be 8.46 µM.
With `COc1ccc(Nc2nc(S(=O)(=O)c3ccc(C)cc3)c(Cl)s2)cc1`, the IC90 was more than 10 µM. For the setting “HEPG2TOX_HILL_SLOPE 11.4, HEPG2TOX_R_SQUARED 0.576, read-out: LUCIFERASE INFECTION ASSAY - IC50”, the IC50 was more than 10 µM.
As for `O=C(Nc1ncccc1O)c1ccc(-c2ccc3c(c2)OCCO3)s1`, the IC90 is more than 10 µM. Further, under setting [1], the IC50 was 7.42 µM.
Consider `COc1ccc(-c2nn(-c3ccccc3)cc2C(=O)Nc2cc(C(F)(F)F)ccc2N2CCCCC2)cc1`, for which the IC90 is more than 10 µM. Further, under setting [1], the IC50 is more than 10 µM.
For the compound `Cc1ccc(SCc2ccc(-c3nc4ccccc4s3)cc2)cc1`, the IC90 is more than 9.5 µM. Moreover, the IC50 (PBLUC_HILL_SLOPE 1.56, PBLUC_R_SQUARED 0.316, read-out: LUCIFERASE INFECTION ASSAY - IC50) came to 4.39 µM.
In the case of `Cn1cc(CN2CC=C(c3ccccc3)CC2)c2ccccc21`, the IC90 was more than 10 µM. Besides, the IC50 (HEPG2TOX_HILL_SLOPE 7.11, HEPG2TOX_R_SQUARED 0.283, PBLUC_HILL_SLOPE 12.5, PBLUC_R_SQUARED 0.246, read-out: LUCIFERASE INFECTION ASSAY - IC50) was 9.52 µM.
`CC(=O)Nc1ccc(-c2ccc3ncc(-c4ccc(CO)cc4)n3n2)cc1`: the IC90 was more than 10 µM. In addition, the IC50 (HEPG2TOX_HILL_SLOPE 0.612, HEPG2TOX_R_SQUARED 0.859, PBLUC_HILL_SLOPE 1.16, PBLUC_R_SQUARED 0.655, read-out: LUCIFERASE INFECTION ASSAY - IC50) stood at 1.9 µM.
For the compound `CCOc1nc(N)c(C#N)c(-c2ccc(C(F)(F)F)cc2)c1C#N`, the IC90 turned out to be 8.21 µM. For the same compound, the IC50 under setting [1] came to 4.53 µM.
Consider `Cc1c(C(=O)Nc2ccc(N3CCOCC3)cc2N2CCOCC2)oc2ccc(F)cc12`, for which the IC90 was more than 10 µM. In addition, under setting [1], the IC50 was more than 10 µM.
Consider `COc1cc(NC(=O)c2sccc2Oc2ccc(C(F)(F)F)cc2[N+](=O)[O-])c(Cl)cc1Cl`, for which the IC90 is 5.34 µM. For the same compound, the IC50 (FFLUC_HILL_SLOPE 15.3, FFLUC_R_SQUARED 0.803, PBLUC_HILL_SLOPE 1.96, PBLUC_R_SQUARED 0.575, read-out: LUCIFERASE INFECTION ASSAY - IC50) was 1.74 µM.
Consider `Cc1ccc(C(=O)NC(c2ccccc2)c2ccccc2)s1`, for which the IC90 is more than 10 µM. Also, the IC50 under setting [1] was more than 10 µM.
In the case of `O=c1[nH]nc(Sc2ncc([N+](=O)[O-])s2)n1Cc1ccccc1`, the IC90 is more than 9.84 µM. For the same compound, the IC50 (FFLUC_HILL_SLOPE 3.03, FFLUC_R_SQUARED 0.344, HEPG2TOX_HILL_SLOPE 12.4, HEPG2TOX_R_SQUARED 0.571, PBLUC_HILL_SLOPE 13, PBLUC_R_SQUARED 0.0851, read-out: LUCIFERASE INFECTION ASSAY - IC50) turned out to be 8.7 µM.
Regarding `COc1ccc2c(C)cc3nnc(SCCOc4ccccc4F)n3c2c1`, the IC90 worked out at 5.11 µM. Besides, the concentration for half-maximal inhibition (IC50) (PBLUC_HILL_SLOPE 752, PBLUC_R_SQUARED 0.219, read-out: LUCIFERASE INFECTION ASSAY - IC50) worked out at 5.09 µM.
Turning to `C=CCOc1cccc(/C=C2/C(=O)Nc3cc(Cl)ccc32)c1`, the IC90 was more than 10 µM. In addition, for the setting “FFLUC_HILL_SLOPE 17.6, FFLUC_R_SQUARED 0.397, HEPG2TOX_HILL_SLOPE 7.7, HEPG2TOX_R_SQUARED 0.755, PBLUC_HILL_SLOPE 12.7, PBLUC_R_SQUARED 0.0397, read-out: LUCIFERASE INFECTION ASSAY - IC50”, the IC50 amounted to 9.6 µM.
Regarding `CCCc1ccc(-c2nc(-c3cccs3)no2)cc1`, the 90% effect concentration (IC90) was determined as 0.0812 µM.
Regarding `NS(=O)(=O)c1ccc(CNC(=O)c2ccc(Cn3cccn3)cc2)s1`, the IC90 was more than 10 µM. Moreover, the IC50 (HEPG2TOX_HILL_SLOPE 0.983, HEPG2TOX_R_SQUARED 0.0206, read-out: LUCIFERASE INFECTION ASSAY - IC50) is more than 10 µM.
For the compound `CCn1c(=O)c(C)nc2cc(C(=O)Nc3ccc(C(C)(C)C)cc3)ccc21`, the IC90 came out at 1.74 µM. Also, the IC50 (HEPG2TOX_HILL_SLOPE 2.17, HEPG2TOX_R_SQUARED 0.922, PBLUC_HILL_SLOPE 3.75, PBLUC_R_SQUARED 0.489, read-out: LUCIFERASE INFECTION ASSAY - IC50) turned out to be 0.966 µM.
Consider `Cn1cnnc1-c1cccc(NC(=O)c2ccc(=O)n(Cc3ccccc3)n2)c1`, for which the IC90 is more than 10 µM. The IC50 under setting [1] is more than 10 µM.
On to `O=C(COC(=O)c1c2c(nc3ccccc13)CCCC2)Nc1ccccc1`, for which the IC90 is more than 10 µM. Further, the IC50 (HEPG2TOX_HILL_SLOPE 0.267, HEPG2TOX_R_SQUARED 0.55, read-out: LUCIFERASE INFECTION ASSAY - IC50) is more than 10 µM.
With `CNc1nc2cnc(-c3cccc(OC(F)(F)F)c3)cc2n1-c1cccc(F)c1`, the IC90 is more than 10 µM. The IC50 (PBLUC_HILL_SLOPE 15.2, PBLUC_R_SQUARED 0.218, read-out: LUCIFERASE INFECTION ASSAY - IC50) worked out at 9.01 µM.
On to `C/C(=N\NC(=S)NC(C)(C)C)c1cc(F)cc(F)c1O`, for which the IC90 was found to be 10.5 µM. Moreover, the IC50 (HEPG2TOX_HILL_SLOPE 8.26, HEPG2TOX_R_SQUARED 0.458, PBLUC_HILL_SLOPE 21.3, PBLUC_R_SQUARED 0.177, read-out: LUCIFERASE INFECTION ASSAY - IC50) was found to be 9.5 µM.
As to `Cc1ccc(C(=O)/C=C/C(=O)c2ccc(C)cc2)cc1`, the concentration for an effect of 90% (IC90) is more than 10 µM. The 50% inhibitory concentration (IC50) (FFLUC_HILL_SLOPE 1.4, FFLUC_R_SQUARED 0.731, read-out: LUCIFERASE INFECTION ASSAY - IC50) was more than 10 µM.
For the compound `O=C(/C=C/c1ccc(F)cc1)Nc1cc([N+](=O)[O-])c(F)cc1F`, the IC90 is more than 10 µM. Further, the IC50 (HEPG2TOX_HILL_SLOPE 14.4, HEPG2TOX_R_SQUARED 0.364, PBLUC_HILL_SLOPE 4.24, PBLUC_R_SQUARED 0.457, read-out: LUCIFERASE INFECTION ASSAY - IC50) amounted to 8.62 µM.
In the case of `Cn1ccc2cc(-c3cnc4cnc(-c5ccc(C(=O)N6CCOCC6)cc5)cn34)ccc21`, the IC90 is more than 7.54 µM. Further, the IC50 (HEPG2TOX_HILL_SLOPE 0.0832, HEPG2TOX_R_SQUARED 0.45, PBLUC_HILL_SLOPE 3.74, PBLUC_R_SQUARED 0.552, read-out: LUCIFERASE INFECTION ASSAY - IC50) was found to be 5.41 µM.
As for `CC(C)Cc1nc2oc3c(NCCO)ncnc3c2c2c1CCCC2`, the IC90 was more than 9.69 µM. Also, the IC50 (PBLUC_HILL_SLOPE 4.31, PBLUC_R_SQUARED 0.188, read-out: LUCIFERASE INFECTION ASSAY - IC50) turned out to be 6.98 µM.
`Cc1cccc(CNc2nc3cnc(Nc4cccc(O)c4)cc3n2C)c1`: the IC90 was more than 10 µM. The IC50 (FFLUC_HILL_SLOPE 6.96, FFLUC_R_SQUARED 0.0526, HEPG2TOX_HILL_SLOPE 13.6, HEPG2TOX_R_SQUARED 0.973, PBLUC_HILL_SLOPE 10.5, PBLUC_R_SQUARED 0.188, read-out: LUCIFERASE INFECTION ASSAY - IC50) is 8.85 µM.
As for `O=C(Nc1nc(-c2ccc(F)cc2)cs1)c1cccc(S(=O)(=O)N2CCc3ccccc32)c1`, the IC90 is more than 10 µM. Under setting [1], the concentration for half-maximal inhibition (IC50) is more than 10 µM.
In the case of `COc1cc(-c2cnc3cnc(-c4ccc(CNc5ccccc5)cc4)cn23)cc(OC)c1OC`, the IC90 came to 5.78 µM. The IC50 (PBLUC_HILL_SLOPE 3.28, PBLUC_R_SQUARED 0.672, read-out: LUCIFERASE INFECTION ASSAY - IC50) was found to be 2.96 µM.
For `Cc1cc(C(=O)Cn2c(C(C)O)nc3ccccc32)c(C)n1-c1ccc(F)c(Cl)c1` (stereo not drawn), the IC90 was more than 10 µM. In addition, for the setting “PBLUC_HILL_SLOPE 2.79, PBLUC_R_SQUARED 0.449, read-out: LUCIFERASE INFECTION ASSAY - IC50”, the IC50 is 7.26 µM.
On to `CCCCc1ccc(NC(=O)/C(C#N)=C/c2ccccc2Cl)cc1`, for which the IC90 is more than 10 µM. In addition, the IC50 under setting [1] is more than 10 µM.
`CC(C)c1ccc(N2C(=O)/C(=C\c3ccccc3OCc3ccccn3)NC2=S)cc1`: the IC90 turned out to be 3.92 µM. Besides, the IC50 (HEPG2TOX_HILL_SLOPE 3.89, HEPG2TOX_R_SQUARED 0.964, PBLUC_HILL_SLOPE 2.57, PBLUC_R_SQUARED 0.661, read-out: LUCIFERASE INFECTION ASSAY - IC50) stood at 1.67 µM.
